Literature values, collected in patent US20170303537A1, “COMPOSITIONS OF A QUATERNARY AMMONIUM COMPOUND WITH A MONOCARBOXYLIC FATTY ACID” (OMS INVESTMENTS, INC., priority 2016, published 2017).

pKa: about 5
SMILES: CCCCCCCCC(=O)O [pelargonic acid]
